{"source": "patent US6355616B1", "about": "“Derivative compounds derived from or based on bactericidal/permeability-increasing protein” (priority 1999, dated 2002)", "key": {"[1]": {"system": "Candida albicans, SLU-1", "assay": "28-day comparative survival efficacy study in mice systemically infected with Candida albicans", "type": "in vivo, male DBA/2 mice", "settings": "for improvement in mortality compared with dextrose-treated controls: mice infected iv with C. albicans SLU-1, two doses less than 5 mg/kg, initial experiments (p>0.5)", "procedure": "Derivatized peptide-based constructs are tested for activity upon oral administration (oral activity) in a 28-day comparative survival efficacy study in mice systemically infected with Candida albicans. Specifically, male DBA/2 mice (Charles River Laboratories) six weeks of age are dosed with 7.9×10^4 Candida albicans, SLU-1 in 100 μL intravenously via the tail vein in a single dosage on day zero (0). However, other routes of administration, including intraperitoneal (ip) and subcutaneous (sc) routes may be administered. Amphotericin B will provide complete protection at 0.5 mg/kg qod (100% survival). Mortality data will be subjected to Kaplan-Meier survival analysis. All treatment groups may be considered statistically significant vs. saline at p values <0.05.\nTreatment begins immediately thereafter with 400 μL oral gavage of either 0.5% dextrose, or derivative compound in 0.5% dextrose at various dosage levels (e.g., 10 mg/kg or 20 mg/kg) according to a prescribed dosing regimen (e.g. every other day for a total of eight times). Amphotericin B (Fungizone®) is administered intravenously at 0.5 mg/kg as a positive control every other day for a total of eight times. Twice-day monitoring (once daily on weekends and holidays) for mortality is performed. The animals treated with antiflngal derivative compound show improvement in mortality compared with the dextrose-treated controls, preferably statistically significant improvement (p-value of […])."}, "[2]": {"system": "Candida albicans designated CA-1, Strain SLU-1", "type": "cell-based", "procedure": "In each broth microdilution assay screening procedure, a colony of Candida albicans designated CA-1, Strain SLU-1 that was received from the laboratories of G. Matuschak and A. Lechner, St. Louis University Hospital, St. Louis, Mo., where the strain was maintained, was inoculated into a tube containing 5 mL Sabouraud Dextrose broth (2% dextrose, 1% neopeptone) and incubated at 37° C. with shaking. The overnight culture was diluted 1:50 into 5 ml of fresh broth and incubated for 3 hours at 37° C. to exponential phase growth. Organisms were pelleted by centrifugation in a Beckman J-6M centrifuge for 5 minutes at 3000 rpm (1500×g) and the pellets were resuspended in 5 mL phosphate buffered saline (PBS) and the optical density (OD) at 570 nm was determined. On the basis of the determination that one OD unit equals 3×10^7 colony forming units/mL (CFU/mL), yeast cells were diluted to 5×10^3 CFU/mL in Sabouraud Dextrose broth (SBD).\nDerivatized peptide sequences based on Domain III of BPI to be screened which were originally constituted in Dulbecco's-PBS, were two-fold serially diluted in SDB starting from a concentration of 128 μg/mL. Equal volumes (100 μL) of yeast suspension as prepared above and derivatized peptide solution were added to wells of a 96-well sterile, flat bottom, non-pyrogenic tissue culture microtiter plate (Costar, Cambridge, Mass.) to reach a final volume of 200 μL/well. The plate was incubated on a shaker at 37° C. for 24 hours. All assays were performed in triplicate. Following the incubation period, plates were read in an ELISA plate reader at 595 nm wavelength to determine the minimum inhibitory concentration (MIC), i.e., the lowest concentration required to reduce the optical density at 595 nm to below 0.1 OD."}, "[3]": {"system": "Candida albicans SLU-1", "assay": "Radial diffusion assay", "type": "cell-based", "procedure": "In the radial diffusion assay procedures, the CA-1 cultures and derivatized peptide solutions were prepared as in the broth microdilution assay procedure described above, i.e., CA-1 was grown to exponential phase in SDB. Ten (10) mL of molten underlayer agarose comprising 3% Sabouraud Dextrose broth, 1% agarose (Pharmacia, Piscataway, N.J.), 0.02% Tween 20, and 10 mM sodium phosphate at pH 7.4, was added to polystyrene tubes and maintained in a 56° C. water bath until the addition of yeast. Tubes were cooled to approximately 45° C., yeast were added to give a final concentration of 1×10^6 CFU/mL, and the tubes were mixed again by inverting. The contents were poured into leveled, square petri dishes and distributed evenly. […] A series of wells were punched into the hardened agarose using a sterile 3 mm punch attached to a vacuum apparatus to achieve a uniform, 3 mm diameter well.\nDerivatized peptide sequences to be assayed were 2-fold serially diluted in 10 mM Dulbecco's PBS (D-PBS) starting from a concentration of approximately […]. Five μL of each dilution were added to each well and the plates were incubated at 37° C. for 3 hours to allow for complete diffusion of the test compounds. An overlayer of 10 mL of molten agarose comprising 6% Sabouraud Dextrose broth, 1% agarose, and 10 mM sodium phosphate, pH 7.4, (at approximately 45° C.) was then added and plates were incubated overnight at 37° C. Following this overnight incubation, a dilute Coomassie solution was poured into the plates and allowed to stain for 24 hours to enhance visualization of the zones.\nClear zones of growth inhibition around each well were measured with calipers. The actual area of growth inhibition (mm^2) was calculated by subtracting the area of the well. Table II below sets out the results of the radial diffusion assays for a series of tested peptide-based constructs in terms of the number of picomoles (pmol) of compound required to establish a 30 mm^2 area of growth inhibition of Candida albicans SLU-1 calculated by PROBIT analysis (e.g., calculated from regression of the linear portion of log-concentration dose-response curve, log pmol/well vs. net area of inhibition)."}, "[4]": {"settings": "designated CA-1, Strain SLU-1, 24 h"}, "[5]": {"settings": "30 mm^2 area of growth inhibition, calculated by PROBIT analysis"}}, "note": "Where two headings read alike, the source gives them in different places. Non-standard residues stand in square brackets, D forms with d. Residues, ends and D or L forms follow the SMILES beside them. Aoc = NCCCCCCCC(=O)O"}
{"compound": "C[C@@H]1[C@H](O)[C@@H](C)/C=C/C=C/C=C/C=C/C=C/C=C/C=C/[C@H](O[C@@H]2O[C@H](C)[C@@H](O)[C@H](N)[C@@H]2O)C[C@@H]2O[C@](O)(C[C@@H](O)C[C@@H](O)[C@H](O)CC[C@@H](O)C[C@@H](O)CC(=O)O[C@H]1C)C[C@H](O)[C@H]2C(=O)O", "note": "[Amphotericin B, reference compound]", "values": [{"measurement": "survival", "setting": "[1]; 0.5 mg/kg qod, positive control, 'will provide complete protection'", "value": 100, "unit": "%"}]}
{"compound": "CC[C@@H](C)[C@@H](NC(=O)[C@@H](CC(C)C)NC(=O)[C@@H](Cc1c[nH]c2ccccc12)NC(=O)[C@@H](CCCCN)NC(=O)CCCCCCCN)C(=O)N[C@H](CCC(N)=O)C(=O)N[C@H](CC(C)C)C(=O)N[C@H](Cc1ccccc1)C(=O)N[C@H](Cc1c[nH]cn1)C(=O)N[C@H](CCCCN)C(=O)N[C@H](CCCCN)C(N)=O", "note": "[XMP.416] (H-[Aoc][dK][dW][dL][dI][dQ][dL][dF][dH][dK][dK]-NH2)", "values": [{"measurement": "Broth Microdilution (MIC values in μg/mL C. albicans SLU1)", "setting": "[2]; [4]", "value": 1, "unit": "µg/mL"}, {"measurement": "Radial Diffusion (pmol to achieve 30 mm^2 zone C. albicans SLU1)", "setting": "[3]; [5]", "value": 410, "unit": "pmol"}]}
{"compound": "CC[C@@H](C)[C@@H](NC(=O)[C@@H](CC(C)C)NC(=O)[C@@H](Cc1c[nH]c2ccccc12)NC(=O)[C@@H](CCCCN)NC(=O)c1c[nH]cn1)C(=O)N[C@H](CCC(N)=O)C(=O)N[C@H](CC(C)C)C(=O)N[C@H](Cc1ccccc1)C(=O)N[C@H](Cc1c[nH]cn1)C(=O)N[C@H](CCCCN)C(=O)N[C@H](CCCCN)C(N)=O", "note": "[XMP.500]", "values": [{"measurement": "improvement in mortality compared with dextrose-treated controls", "setting": "[1]", "value": "did not exhibit statistically significant improvement"}]}
{"compound": "CC[C@@H](C)[C@@H](NC(=O)[C@@H](CC(C)C)NC(=O)[C@@H](Cc1c[nH]c2ccccc12)NC(=O)[C@@H](CCCCN)NC(C)=O)C(=O)N[C@H](CCC(N)=O)C(=O)N[C@H](CC(C)C)C(=O)N[C@H](Cc1ccccc1)C(=O)N[C@H](Cc1c[nH]cn1)C(=O)N[C@H](CCCCN)C(=O)N[C@H](CCCCNC(=O)CCCC[C@@H]1SC[C@@H]2NC(=O)N[C@@H]21)C(N)=O", "note": "[XMP.518]", "values": [{"measurement": "Broth Microdilution (MIC values in μg/mL C. albicans SLU1)", "setting": "[2]; [4]", "value": 8, "unit": "µg/mL"}, {"measurement": "Radial Diffusion (pmol to achieve 30 mm^2 zone C. albicans SLU1)", "setting": "[3]; [5]", "value": 484, "unit": "pmol"}]}
{"compound": "CC[C@@H](C)[C@@H](NC(=O)[C@@H](CC(C)C)NC(=O)[C@@H](Cc1c[nH]c2ccccc12)NC(=O)[C@@H](CCCCN)NC(C)=O)C(=O)N[C@H](CCC(N)=O)C(=O)N[C@H](CC(C)C)C(=O)N[C@H](Cc1ccccc1)C(=O)N[C@H](Cc1c[nH]cn1)C(=O)N[C@H](CCCCNC(=O)CCCC[C@@H]1SC[C@@H]2NC(=O)N[C@@H]21)C(=O)N[C@H](CCCCN)C(N)=O", "note": "[XMP.521]", "values": [{"measurement": "Broth Microdilution (MIC values in μg/mL C. albicans SLU1)", "setting": "[2]; [4]", "value": 16, "unit": "µg/mL"}, {"measurement": "Radial Diffusion (pmol to achieve 30 mm^2 zone C. albicans SLU1)", "setting": "[3]; [5]", "value": 959, "unit": "pmol"}]}
{"compound": "CC[C@@H](C)[C@@H](NC(=O)[C@@H](CC(C)C)NC(=O)[C@@H](Cc1c[nH]c2ccccc12)NC(=O)[C@@H](CCCCN)NC(=O)c1cc2ccccc2o1)C(=O)N[C@H](CCC(N)=O)C(=O)N[C@H](CC(C)C)C(=O)N[C@H](Cc1ccccc1)C(=O)N[C@H](Cc1c[nH]cn1)C(=O)N[C@H](CCCCN)C(=O)N[C@H](CCCCN)C(N)=O", "note": "[XMP.536]", "values": [{"measurement": "Broth Microdilution (MIC values in μg/mL C. albicans SLU1)", "setting": "[2]; [4]", "value": 4, "unit": "µg/mL"}, {"measurement": "Radial Diffusion (pmol to achieve 30 mm^2 zone C. albicans SLU1)", "setting": "[3]; [5]", "value": ">3,371 pmol"}]}
{"compound": "CC[C@@H](C)[C@@H](NC(=O)[C@@H](CC(C)C)NC(=O)[C@@H](Cc1c[nH]c2ccccc12)NC(=O)[C@@H](CCCCN)NC(=O)c1cc2ccccc2[nH]1)C(=O)N[C@H](CCC(N)=O)C(=O)N[C@H](CC(C)C)C(=O)N[C@H](Cc1ccccc1)C(=O)N[C@H](Cc1c[nH]cn1)C(=O)N[C@H](CCCCN)C(=O)N[C@H](CCCCN)C(N)=O", "note": "[XMP.545]", "values": [{"measurement": "Broth Microdilution (MIC values in μg/mL C. albicans SLU1)", "setting": "[2]; [4]", "value": 8, "unit": "µg/mL"}, {"measurement": "Radial Diffusion (pmol to achieve 30 mm^2 zone C. albicans SLU1)", "setting": "[3]; [5]", "value": "1,635 pmol"}]}
{"compound": "CC[C@@H](C)[C@@H](NC(=O)[C@@H](CC(C)C)NC(=O)[C@@H](Cc1c[nH]c2ccccc12)NC(=O)[C@@H](CCCCN)NC(=O)c1nccc2ccccc12)C(=O)N[C@H](CCC(N)=O)C(=O)N[C@H](CC(C)C)C(=O)N[C@H](Cc1ccccc1)C(=O)N[C@H](Cc1c[nH]cn1)C(=O)N[C@H](CCCCN)C(=O)N[C@H](CCCCN)C(N)=O", "note": "[XMP.546]", "values": [{"measurement": "Broth Microdilution (MIC values in μg/mL C. albicans SLU1)", "setting": "[2]; [4]", "value": ">64", "unit": "µg/mL"}, {"measurement": "Radial Diffusion (pmol to achieve 30 mm^2 zone C. albicans SLU1)", "setting": "[3]; [5]", "value": ">3,371 pmol"}]}
{"compound": "CC[C@@H](C)[C@@H](NC(=O)[C@@H](CC(C)C)NC(=O)[C@@H](Cc1c[nH]c2ccccc12)NC(=O)[C@@H](CCCCN)NC(=O)c1ccc2ccccc2n1)C(=O)N[C@H](CCC(N)=O)C(=O)N[C@H](CC(C)C)C(=O)N[C@H](Cc1ccccc1)C(=O)N[C@H](Cc1c[nH]cn1)C(=O)N[C@H](CCCCN)C(=O)N[C@H](CCCCN)C(N)=O", "note": "[XMP.596]", "values": [{"measurement": "Broth Microdilution (MIC values in μg/mL C. albicans SLU1)", "setting": "[2]; [4]", "value": 2, "unit": "µg/mL"}, {"measurement": "Radial Diffusion (pmol to achieve 30 mm^2 zone C. albicans SLU1)", "setting": "[3]; [5]", "value": "3,140 pmol"}]}
{"compound": "CC[C@@H](C)[C@@H](NC(=O)[C@@H](CC(C)C)NC(=O)[C@@H](Cc1c[nH]c2ccccc12)NC(=O)[C@@H](CCCCN)NC(=O)c1cccc(Cl)c1[N+](=O)[O-])C(=O)N[C@H](CCC(N)=O)C(=O)N[C@H](CC(C)C)C(=O)N[C@H](Cc1ccccc1)C(=O)N[C@H](Cc1c[nH]cn1)C(=O)N[C@H](CCCCN)C(=O)N[C@H](CCCCN)C(N)=O", "note": "[XMP.618]", "values": [{"measurement": "Broth Microdilution (MIC values in μg/mL C. albicans SLU1)", "setting": "[2]; [4]", "value": 4, "unit": "µg/mL"}, {"measurement": "Radial Diffusion (pmol to achieve 30 mm^2 zone C. albicans SLU1)", "setting": "[3]; [5]", "value": "2,146 pmol"}]}
{"compound": "XMP.503: R1 = pyridine carbonyl, R2 = R3 = H (KWLIQLFHKK; XMP.503; Position 1 is derivatized at the alpha-amino with: pyridine carbonyl; Positions 1-10 are D-Amino Acids; AMIDATION=The C-terminus is Amidated)", "values": [{"measurement": "improvement in mortality compared with dextrose-treated controls", "setting": "[1]", "value": "did not exhibit statistically significant improvement"}]}
{"compound": "XMP.535: peptide-based construct; derivatization not given in Table I (KWLIQLFHKK; XMP.535; Position 1 is derivatized at the alpha-amino with: anthraquinone carbonyl; Positions 1-10 are D-Amino Acids; AMIDATION=The C-terminus is Amidated)", "values": [{"measurement": "Broth Microdilution (MIC values in μg/mL C. albicans SLU1)", "setting": "[2]; C. albicans SLU1", "value": "b (no detectable activity up to 5 μg/well)"}, {"measurement": "Radial Diffusion (pmol to achieve 30 mm^2 zone C. albicans SLU1)", "setting": "[3]", "value": "b (no detectable activity up to 5 μg/well)"}]}
